Results published in the supplement of paper PMC10307832.

Legend:
Assay in all cases: relative viability (nuclei count vs DMSO), 5 days (fraction); higher = more cells survive
Alpelisib + Olaparib = compound: Cc1nc(NC(=O)N2CCC[C@H]2C(N)=O)sc1-c1ccnc(C(C)(C)C(F)(F)F)c1 [Alpelisib] + O=C(c1cc(Cc2n[nH]c(=O)c3ccccc23)ccc1F)N1CCN(C(=O)C2CC2)CC1 [Olaparib] (partner 8 µM)
Method in brief: (§1)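 Lung cancer cell lines, seeded in 1536-well plates, were treated the following day by pin tool with a single drug or with five library-drug doses (not always all listed) in √10 steps on top of a fixed anchor-drug dose. Cells were fixed and nuclei stained in one step after 5 days, and nuclei were counted. Relative viability is the nuclei count for treated wells divided by that for vehicle wells, reported as medians of duplicate plates.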

OSI-027 + Pictilisib = compound: COc1cccc2cc(-c3nc([C@H]4CC[C@H](C(=O)O)CC4)n4ncnc(N)c34)[nH]c12 [OSI-027] + CS(=O)(=O)N1CCN(Cc2cc3nc(-c4cccc5[nH]ncc45)nc(N4CCOCC4)c3s2)CC1 [Pictilisib] (partner 1 µM)
Method in brief: as §1

OSI-027 + Lapatinib = compound: COc1cccc2cc(-c3nc([C@H]4CC[C@H](C(=O)O)CC4)n4ncnc(N)c34)[nH]c12 [OSI-027] + CS(=O)(=O)CCNCc1ccc(-c2ccc3ncnc(Nc4ccc(OCc5cccc(F)c5)c(Cl)c4)c3c2)o1 [Lapatinib] (partner 2 µM)
Method in brief: as §1

Vemurafenib + Lapatinib = compound: CCCS(=O)(=O)Nc1ccc(F)c(C(=O)c2c[nH]c3ncc(-c4ccc(Cl)cc4)cc23)c1F [Vemurafenib] + CS(=O)(=O)CCNCc1ccc(-c2ccc3ncnc(Nc4ccc(OCc5cccc(F)c5)c(Cl)c4)c3c2)o1 [Lapatinib] (partner 2 µM)
Method in brief: as §1

Cell Line	relative viability (Alpelisib + Olaparib; first compound 0.04 µM)	relative viability (Alpelisib + Olaparib; first compound 0.1265 µM)	relative viability (Alpelisib + Olaparib; first compound 0.4 µM)	relative viability (Alpelisib + Olaparib; first compound 1.265 µM)	relative viability (Alpelisib + Olaparib; first compound 4 µM)	relative viability (OSI-027 + Pictilisib; first compound 0.01 µM)	relative viability (OSI-027 + Pictilisib; first compound 0.03162 µM)	relative viability (OSI-027 + Pictilisib; first compound 0.1 µM)	relative viability (OSI-027 + Pictilisib; first compound 0.3162 µM)	relative viability (OSI-027 + Pictilisib; first compound 1 µM)	relative viability (OSI-027 + Lapatinib; first compound 0.01 µM)	relative viability (OSI-027 + Lapatinib; first compound 0.03162 µM)	relative viability (OSI-027 + Lapatinib; first compound 0.1 µM)	relative viability (OSI-027 + Lapatinib; first compound 0.3162 µM)	relative viability (OSI-027 + Lapatinib; first compound 1 µM)	relative viability (Vemurafenib + Lapatinib; first compound 0.03162 µM)	relative viability (Vemurafenib + Lapatinib; first compound 0.1 µM)	relative viability (Vemurafenib + Lapatinib; first compound 0.3162 µM)	relative viability (Vemurafenib + Lapatinib; first compound 1 µM)
LK-2	0.636	0.464	0.74	0.301	0.328	0.627	0.474	0.305	0.251	0.23	0.861	0.789	0.609	0.385	0.268	0.674	0.867	0.835	0.505
LOU-NH91	0.915	0.87	0.844	0.65	0.777	0.544	0.555	0.489	0.472	0.447	0.727	0.702	0.626	0.598	0.482	0.683	0.78		0.781
LU99A	0.245	0.282	0.268	0.287	0.232	0.315	0.294	0.259	0.18	0.189	0.834	0.921	0.789	0.309	0.218	0.878	0.985	1.03	0.916
LXF-289	1.04	1.04	1.12	0.997	0.942	0.778	0.714	0.752	0.511	0.46	0.99	0.885	0.926	0.9	0.74	0.892	0.883	0.87	0.965
NCI-H23	0.254	0.269	0.321	0.232	0.289	0.491	0.403	0.407	0.312	0.245	1.07	1.13	1.06	0.618	0.291	0.87	1.16	0.749	1.36
NCI-H322M	0.804	0.82	0.791	0.671	0.53	0.574	0.443	0.485	0.416	0.405	0.578	0.651	0.543	0.57	0.559	0.583		0.801	0.491
NCI-H441	0.549	0.478	0.733	0.46	0.236	0.459	0.312	0.491	0.312	0.257									
NCI-H522	0.795	0.693	0.529	0.661	0.491														
NCI-H1563						0.619	0.625	0.604	0.631	0.673	0.846	1.05	0.745	0.757	0.775	0.842	0.886	0.84	0.961
NCI-H1648	0.887	0.758	1.13	0.4	0.331														
NCI-H2342	0.448	0.429	0.405	0.367	0.266														
SW 900	0.878		0.974	0.914	0.795														
